According to US20250230138A1, “COMPOUNDS HAVING A T-STRUCTURE FORMED BY AT LEAST FOUR CYCLES FOR USE IN THE TREATMENT OF CANCER AND OTHER INDICATIONS” (TheRas, Inc., priority 2022, published 2025):
Like-named read-outs stand apart in the source and are kept apart here.

How the values were obtained:
[1] = target: Cys242 in human PIK3CA (157-299) (Homo sapiens (Human), UniProt P42336); experiment: Covalent modification assay using MALDI-TOF MS; assay type: biochemical; details: 4 h reaction time point
Method in brief: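 PIK3CA (157-299) at 3.33 μM or 1 μM in 20 mM HEPES, 150 mM NaCl, 2 mM MgCl2, pH 7.3 was incubated with compound (from 10 mM DMSO stocks) in the dark at room temperature for 15 min, 30 min, 2 h or 4 h. Linear-mode MALDI-TOF peak heights gave percent modification.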

pAKT in BT474 cells = experiment: Cell-based pAKT HTRF assay in BT474 cells; details: BT474 cells, 4 hr incubation, read-out: pAKT inhibition IC50 in BT474 cells
Method in brief: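 BT474 cells in DMEM/10% FBS were treated the day after seeding with a 9-point, 3-fold compound series from 3 μM (0.25% DMSO) for 4 hr. Lysates were mixed with d2 and Eu cryptate anti-pAKT antibodies and incubated 4-24 h at room temperature. HTRF was read with excitation at 320 nm and emission at 615 nm.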

[2] = 3.33 μM protein target, 1:7.5 protein to compound ratio (compounds 1-852)
[3] = 1 μM protein target, 1:5 protein to compound ratio (compounds 853-1279)
[4] = Homo sapiens, BT-474, Compounds 10-999

Sequence of Cys242 in human PIK3CA (157-299) (P42336 157-299): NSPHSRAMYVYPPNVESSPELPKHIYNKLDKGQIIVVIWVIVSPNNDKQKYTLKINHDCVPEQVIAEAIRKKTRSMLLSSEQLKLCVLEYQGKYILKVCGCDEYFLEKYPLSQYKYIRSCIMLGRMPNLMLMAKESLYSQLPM

| Structure (SMILES) | % of modification [1, 2] | IC50 (pAKT in BT474 cells; Compounds 10-999) [nM] | % of modification [1, 3] | IC50 (pAKT in BT474 cells; Compounds 1000-1279) [nM] | IC50 (pAKT in BT474 cells; [4]) [nM] |
| --- | --- | --- | --- | --- | --- |
| C=CC(=O)N1CCn2nc(-c3nc(-c4cccc(C#N)c4)c4ccsc4c3-c3ccc(F)cc3OCCOC)cc2C1 [Compound 270] | A (percent of modification of PIK3CA protein ≥75%) | < 100 |  |  |  |
| C=CC(=O)N1CCc2ncc(-c3nc(-c4ccc5c(c4)CNC5=O)c4ccsc4c3-c3ccc(F)cc3OC(C)C)cc2C1 [Compound 316] | A (percent of modification of PIK3CA protein ≥75%) | < 100 |  |  |  |
| C=CC(=O)N1CC[C@H](n2cc(-c3nc(-c4ccc5c(c4)CNC5=O)c4ccsc4c3-c3ccc(F)cc3OC(C)C)cn2)C1 [Compound 328] | A (percent of modification of PIK3CA protein ≥75%) | < 100 |  |  |  |
| C=CC(=O)N1CCc2ccc(-c3nc(-c4ccc5c(c4)CNC5=O)c4ccsc4c3-c3c(F)cc(F)cc3OCCO)cc2C1 [Compound 950] |  | 100 to 1000 | D (percent of modification <25%) |  |  |
| C=CC(=O)N1Cc2cc(-c3nc(-c4ccc(N(C)C)nc4)c4ccsc4c3-c3c(F)cc(F)cc3OCCOC)nn2CC1C (stereo not drawn) [Compound 855] |  | < 100 | A (percent of modification of PIK3CA protein ≥75%) |  |  |
| C=CC(=O)N1CCc2nc(-c3nc(-c4ccc(N5CCNCC5)nc4)c4ccsc4c3-c3ccc(F)cc3OCCOC)sc2C1 [Compound 174] | A (percent of modification of PIK3CA protein ≥75%) | < 100 |  |  |  |
| C=CC(=O)N1CCc2ccc(-c3nc(-c4ccc5c(c4)CN(CCOC)CC5(F)F)c4ccsc4c3-c3c(F)cc(F)cc3OCCOC)cc2C1 [Compound 1277] |  |  | D (percent of modification <25%) | > 1000 |  |
| C=C(F)C(=O)N1Cc2cc(-c3nc(-c4ccc5c(c4)CCN(C)C5)c4ccsc4c3-c3c(F)cc(F)cc3OC(C)C)nn2CC1C (stereo not drawn) [Compound 473] | D (percent of modification <25%) | 100 to 1000 |  |  |  |
| C=CC(=O)N1CCn2nc(-c3nc(N4CCC5(CC4)CS(=O)(=O)C5)c4ccsc4c3-c3ccc(F)cc3OC(C)C)cc2C1 [Compound 211] | A (percent of modification of PIK3CA protein ≥75%) | < 100 |  |  |  |
| C=CC(=O)N1CCn2nc(-c3nc(-c4ccc(=O)n(CC(F)F)c4)c4ccsc4c3-c3c(F)cc(F)cc3OCCOC)cc2C1C (stereo not drawn) [Compound 988] |  | < 100 | A (percent of modification of PIK3CA protein ≥75%) |  |  |
| C=CC(=O)N1Cc2cc(-c3nc(-c4ccc5c(cnn5C)c4)c4ccsc4c3-c3c(F)cc(F)cc3OC)nn2C(C)C1 (stereo not drawn) [Compound 854] |  | < 100 | A (percent of modification of PIK3CA protein ≥75%) |  |  |
| C=CC(=O)N1CCn2nc(-c3nc(-c4cncc(OCCN(C)C)c4)c4ccsc4c3-c3c(F)cc(F)cc3OCCOC)cc2C1C (stereo not drawn) [Compound 1099] |  |  | A (percent of modification of PIK3CA protein ≥75%) | < 100 |  |
| C=CC(=O)N1CCn2nc(-c3nc(-c4ccc5c(cnn5C)c4)c4ccsc4c3-c3c(F)cc(F)cc3OCCO)cc2[C@H]1C [Compound 652] | C (25%≤percent of modification <50%) | < 100 |  |  |  |
| C=CC(=O)N1CC(n2cc(-c3nc(-c4ccc(S(N)(=O)=O)cc4)c4ccsc4c3-c3ccc(F)cc3OCCOC)cn2)C1 [Compound 238] | A (percent of modification of PIK3CA protein ≥75%) | < 100 |  |  |  |
| C=CC(=O)N1CCC(n2cc(-c3nc(-c4cnn5c4CNCC5)c4ccsc4c3-c3ccc(F)cc3OCCOC)cn2)CC1 [Compound 71] | A (percent of modification of PIK3CA protein ≥75%) | 100 to 1000 |  |  |  |
| C=CC(=O)N1CCc2ccc(-c3nc(-c4ccc5c(c4)CNC5=O)c4ccsc4c3-c3c(F)cc(F)cc3OC(C)C)nc2C1 [Compound 411, 5-[7-(2,4-difluoro-6-isopropoxy-phenyl)-6-(7-prop-2-enoyl-6,8-dihydro-5H-1,7-naphthyridin-2-yl)thieno[3,2-c]pyridin-4-yl]isoindolin-1-one] | A (percent of modification of PIK3CA protein ≥75%) |  |  |  | < 100 |
| C=CC(=O)N1CCn2nc(-c3nc(-c4ccc5c(c4)CCN(C(C)C)C5)c4ccsc4c3-c3ccc(F)cc3F)cc2C1 [Compound 250] | A (percent of modification of PIK3CA protein ≥75%) | < 100 |  |  |  |
| C=CC(=O)N1CC(n2cc(-c3nc(-c4ccc5c(c4)CCNC5)c4ccsc4c3-c3ccc(F)cc3OCCOC)cc(C)c2=O)C1 [Compound 178] | A (percent of modification of PIK3CA protein ≥75%) | < 100 |  |  |  |

| Structure (SMILES) | % of modification [1, 2] | IC50 (pAKT in BT474 cells; Compounds 10-999) [nM] | % of modification [1, 3] | IC50 (pAKT in BT474 cells; Compounds 1000-1279) [nM] | IC50 (pAKT in BT474 cells; [4]) [nM] |
| --- | --- | --- | --- | --- | --- |
| C=CC(=O)N1CCn2nc(-c3nc(-c4ccc5c(c4)[C@H](O)CC5)c4ccsc4c3-c3ccc(F)cc3OCCOC)cc2C1 [Compound 257] | A (percent of modification of PIK3CA protein ≥75%) | < 100 |  |  |  |
| C=CC(=O)N1CCn2nc(-c3nc(-c4cnc(C)nc4)c4ccsc4c3-c3c(F)cc(F)cc3OCC(C)O)cc2C1C (stereo not drawn) [Compound 791] | A (percent of modification of PIK3CA protein ≥75%) | < 100 |  |  |  |
| COCCOc1cc(F)cc(F)c1-c1c(-c2cc3n(n2)CCN(C(=O)CCl)[C@@H]3C)nc(-c2ccc3c(cnn3C)c2)c2ccsc12 [Compound 1225] |  |  | A (percent of modification of PIK3CA protein ≥75%) | > 1000 |  |
| C=CC(=O)N1CCn2nc(-c3nc(-c4ccc5c(c4)c(F)nn5C)c4ccsc4c3-c3c(F)cc(F)cc3OCCOC)cc2[C@H]1C [Compound 1165] |  |  | A (percent of modification of PIK3CA protein ≥75%) | < 100 |  |
| C=CC(=O)N1CCn2nc(-c3nc(-c4ccc5ncn(C)c5c4)c4ccsc4c3-c3c(F)cc(F)cc3OC[C@@H](C)O)cc2[C@@H]1C [Compound 647] | A (percent of modification of PIK3CA protein ≥75%) | < 100 |  |  |  |
| C=CC(=O)N1CCc2ccc(-c3nc(-c4cn(C)cn4)c4ccsc4c3-c3c(F)cc(F)cc3OCCO)cc2C1 (single isomer, unassigned) [Compound 1000] |  |  | A (percent of modification of PIK3CA protein ≥75%) | < 100 |  |
| C=CC(=O)N1Cc2cc(-c3nc(-c4ccc5c(c4)CCN(C)C5)c4ccsc4c3-c3c(F)cc(F)cc3OC(C)C)nn2C[C@H]1C [Compound 478, 1-((R)-2-((R)-7-(2,4-difluoro-6-isopropoxyphenyl)-4-(2-methyl-1,2,3,4-tetrahydroisoquinolin-6-yl)thieno[3,2-c]pyridin-6-yl)-6-methyl-6,7-dihydropyrazolo[1,5-a]pyrazin-5(4H)-yl)prop-2-en-1-one] | D (percent of modification <25%) | 100 to 1000 |  |  |  |
| C=CC(=O)N1Cc2cc(-c3nc(-c4ccc5c(c4)CCN(C)C5)c4ccsc4c3-c3c(F)cc(F)cc3OCCO)nn2[C@@H](C)C1 [Compound 565] | A (percent of modification of PIK3CA protein ≥75%) | < 100 |  |  |  |
| C=CC(=O)N1CCC(n2cc(-c3nc(-c4cn(C)cn4)c4ccsc4c3-c3ccc(F)cc3OCCOC)cn2)CC1 [Compound 73] | A (percent of modification of PIK3CA protein ≥75%) | 100 to 1000 |  |  |  |
| C=CC(=O)N1CCn2nc(-c3nc(-c4cnc(C)nc4)c4ccsc4c3-c3c(F)cc(F)cc3OCCOC)cc2C1C (stereo not drawn) [Compound 792] | A (percent of modification of PIK3CA protein ≥75%) | < 100 |  |  |  |
| C=CC(=O)N1CCn2nc(-c3nc(-c4ccc(=O)n(C)c4)nc(C)c3-c3ccc(F)cc3OC(C)C)cc2C1 [Compound 331, 5-[5-(4-fluoro-2-isopropoxy-phenyl)-4-methyl-6-(5-prop-2-enoyl-6,7-dihydro-4H-pyrazolo[1,5-a]pyrazin-2-yl)pyrimidin-2-yl]-1-methyl-pyridin-2-one] | A (percent of modification of PIK3CA protein ≥75%) |  |  |  | 1000 to 3000 |
| C=CC(=O)N1CCn2nc(-c3nc(-c4cnn(C5CN(C)C5)c(=O)c4)c4ccsc4c3-c3c(F)cc(F)cc3OCCOC)cc2C1C (stereo not drawn) [Compound 1035] |  |  | A (percent of modification of PIK3CA protein ≥75%) | < 100 |  |
| C=CC(=O)N1CCn2nc(-c3nc(N4CCCCC4)c4ccsc4c3-c3ccc(F)cc3OCC3CCN(C)C(=O)C3)cc2C1 (stereo not drawn) [Compound 243] | A (percent of modification of PIK3CA protein ≥75%) | 100 to 1000 |  |  |  |
| C=CC(=O)N1CCn2nc(-c3nc(-c4ccc5c(c4)CCN(C)C5=O)c4ccsc4c3-c3c(F)cc(F)cc3OCCOC)cc2[C@@H]1C [Compound 974] |  | 100 to 1000 | D (percent of modification <25%) |  |  |
| C=CC(=O)N1CCc2nc(-c3nc(-c4ccc5c(c4)CCNC5)c4ccsc4c3-c3c(F)cc(Cl)cc3OCCOC)sc2C1 [Compound 465] | A (percent of modification of PIK3CA protein ≥75%) | 100 to 1000 |  |  |  |
| C=CC(=O)N1CCn2nc(-c3nc(-c4ccc5nn(C)cc5c4)c4ccsc4c3-c3c(F)cc(F)cc3OC[C@@H](C)O)cc2[C@H]1C [Compound 760] | A (percent of modification of PIK3CA protein ≥75%) | < 100 |  |  |  |
| C=CC(=O)N1CCn2nc(-c3nc(-c4ccc5c(c4)CN(CC(F)F)CC5)c4ccsc4c3-c3c(F)cc(F)cc3OCCOC)cc2C1C (stereo not drawn) [Compound 1248] |  |  | A (percent of modification of PIK3CA protein ≥75%) | 100 to 1000 |  |
| C=CC(=O)N1CCn2nc(-c3nc(-c4ccc5c(c4)CCNC5=O)c4ccsc4c3-c3ccc(F)cc3OC(C)C)nc2C1 [Compound 219] | A (percent of modification of PIK3CA protein ≥75%) | < 100 |  |  |  |
